According to patent publication EP1482971B1, “STRATEGY FOR RETROVIRAL IMMUNOTHERAPY” (priority 2002, dated 2003):
Read-outs that look alike come from different tables or passages of the source.

Assays:
[1] = tested on: LP-BM5 murine leukemia virus (MuLV); experiment: MAIDS development after a single dose of vinblastine at different times post infection (spleen weight, histology, FACS analysis); assay type: in vivo, C57BL/6 mice
From the text: A murine AIDS (MAIDS) pathology induced by LP-BM5 murine leukemia virus (MuLV) in susceptible mice is an effective tool to investigate mechanisms of retrovirus-induced immunodeficiency. […] Infection of a susceptible strain such as C57BL/6 mice with LP-BM5 leads to chronic splenomegaly, hypergammaglobulinaemia and development of immunodeficiency in both T and B cells. In vitro, there is a progressive impairment in the responsiveness of T-cells and B-cells to mitogenic or specific antigenic stimuli. In vivo, infected mice become increasingly susceptible to challenge with a variety of opportunistic organisms and can develop B-cell lymphoma. Deaths are first observed at 8-10 weeks post-infection (pi), and all mice die within 24 weeks (Figure 1). These alterations in immune function reflect complex changes in the phenotype and function of all components of the immune network.
The treatment with a single dose of the anti-mitotic agent vinblastine (Vb) at different times pi is able to prevent the development/progression of MAIDS. […] Clearly, the Vb treatment is remarkably therapeutic when administered at 6 hr or 14 days pi with 100% (10/10) and 74% (20/27) of mice, respectively, showing no signs of MAIDS development at 10 weeks pi (as determined by spleen weight, histology and FACS analysis). […] Additional experiments have provided results of 100% of mice having no signs of MAIDS development at least 12 months after Vb treatment 14 days pi (data not shown). Although not as pronounced as the protection seen after day 14 treatment, moderate protection from MAIDS development was still observed. […] The total protection from MAIDS development seen in mice given Vb at 6 hrs pi is not unexpected as the virus replicates in actively replicating cells which are the target of the anti-mitotic drug thus any cells infected with the virus are killed by the Vb preventing the virus from rapidly establishing an infection in the host. However, the highly protective effect observed after a single treatment with Vb at 14 days pi is quite remarkable as, by this stage, the viral infection is well established and the early disease processes are well underway. We propose that this highly therapeutic effect is due to the Vb targeting a particular subset of immune regulator cells during their expansion phase and thereby altering the immune response to the viral infection. […] This leads to long term disease free survival for many months post-infection and treatment.
Spleens from the Day 14 pi Vb treated mice as well as infected and uninfected control mice were weighed and examined histologically. The splenic architecture of all MAIDS infected mice was profoundly disorganised as previously reported (Hartley et al., 1989).

MAIDS virus [2] = experiment: Rechallenge with MAIDS virus following protective vinblastine therapy; assay type: in vivo, mice; conditions: Vb at day 14 pi, rechallenged at 3 or 8 weeks post Vb treatment; assessed at 20 weeks
From the text: To determine if mice protected from MAIDS by the day 14 pi Vb treatment develop an immune response which would then protect them from a subsequent rechallenge with the MAIDS virus groups of mice, given the Vb therapy at day 14 pi, were rechallenged with the MAIDS virus at 3 or 8 weeks post Vb treatment. […] This is not an unexpected result as the dominant immunosuppression by the regulator population of cells would have been restored as a consequence of the immune effector response to the second (untreated) infection.

[3] = tested on: CD4^+ T cells and CD25^+CD4^+ T cells; experiment: Direct FACS analysis of spleen cells following Vb therapy on day 14 post infection; assay type: in vivo, mice; conditions: spleens collected 48 hours post Vb treatment
Procedure: FACS analysis of CD4^+ and CD8^+ T cells prepared from spleens of mice treated with Vb on Day 14 pi was performed (Figure 6). CD25^+CD4^+ T cells were also examined as they have recently been identified as having an important regulatory function in mouse models of autoimmune disease and tumour immunology (Takahashi et al., 1998; Shimizu et al., 1999). It is possible that these cells may play a role in the regulation of the immune response to MAIDS. Day 14 pi and uninfected control mice were given Vb therapy and the spleens collected at 48 hours post Vb treatment.

MAIDS virus [4] = experiment: Spleen cell transfer into Vb-treated MAIDS infected mice; assay type: in vivo
From the text: The experiments illustrated in Figure 7 were designed to determine if a single dose of Vb, administered at 14 days pi, is eliminating a population of expanding CD4^+ regulator T cells and thereby releasing effector cells from down-regulation and clearing the host of the MAIDS virus.
Mice were infected with MAIDS, received day 14 pi Vb treatment and then received an adoptive transfer of ∼10^7 spleen cells from donor mice prepared as outlined in Figure 7. For each experiment [designated (I), (II) and (III)] groups consisted of 7 recipient mice and 9 donor mice. Mice in Group I received whole spleens from infected mice that had not received any Vb treatment. Mice in Group II received whole spleen cell preparations, from infected mice, that had been depleted of CD4^+ cells using a FACS cell sorter after staining with fluorochrome-labeled anti-CD4 monoclonal antibody. […] Mice in Group III received whole spleens from infected donor mice that also received Vb treatment on day 14 pi.

MAIDS virus [5] = experiment: Adoptive transfer of CD4+CD25+/- cells into MAIDS infected day 14 Vinblastine treated mice; assay type: in vivo; conditions: MAIDS-infected day 14 Vb-treated recipients given CD4+CD25+ or CD4+CD25- cells from uninfected donors
From the text: An adoptive transfer experiment was designed to directly test the hypothesis that CD4+CD25+ T cells are functioning as the regulator cells in the murine AIDS model. The same approach used to determine that the regulator cells are CD4+ T cells was used to test whether the CD4+CD25+ subset are the target of day 14 Vinblastine treatment. […] 2.0x10^6 cells of the regulator CD4+CD25+ phenotype were purified from single cell suspensions of donor spleens using MACS beads (Miltenyi Biotec) using two positive selection steps. The cells were then tested for purity by flow cytometry (both CD4+CD25+ and CD4+CD25- fractions were of > 90 % purity) and viability using trypan blue exclusion prior to transfer into uninfected (control) and MAIDS infected day 14 Vinblastine treated mice. CD4+CD25- cells were also transferred to allow that the regulator cells may not present in the CD25+ fraction and also to allow for the possibility that these putative regulator cells may lose CD25 expression as they expand and become activated as was reported by Gavin et al., 2002.
Mice receiving adoptive transfer of cells were either uninfected (control) or MAIDS infected and day 14 Vinblastine treated to examine whether the transfer of cells would result in disease progression. […] Disease progression was assessed by spleen weight at 10 weeks post MAIDS infection. […]

murine T cell lymphoma = conditions: cited from earlier work

CC[C@]1(O)C[C@@H]2CN(CCc3c([nH]c4ccccc34)[C@@](C(=O)OC)(c3cc4c(cc3OC)N(C)[C@H]3[C@@](O)(C(=O)OC)[C@H](OC(C)=O)[C@]5(CC)C=CCN6CC[C@]43[C@@H]65)C2)C1 [Vb, vinblastine]
mice protected from any splenomegaly at 20 weeks pi ([1]; Vb at day 14 pi, 4/5 mice): 80%
mice having no signs of MAIDS development at least 12 months after Vb treatment ([1]; Vb treatment 14 days pi, additional experiments, data not shown): 100%
cellular proportions (CD4^+, CD8^+ and B cells) and distributions of spleen cells by FACS analysis ([1]; day 14 pi Vb treated mice at 10 weeks pi, preliminary, data not shown): like those observed in normal uninfected mice
splenic architecture (spleen histology) ([1]; day 14 pi Vb treated mice with normal spleen weights (below 0.25g), 10 weeks pi): indistinguishable from that of uninfected control mice
mice showing no signs of MAIDS development at 10 weeks pi ([1]; single 6mg/kg i.p. dose given at 6 hr pi, 10/10 mice, by spleen weight, histology and FACS analysis): 100%
mice with protective effect (no signs of MAIDS development at 10 weeks pi) ([1]; single 6mg/kg i.p. dose given at 6 days pi, 6/13 mice): 46%
mice showing no signs of MAIDS development at 10 weeks pi ([1]; single 6mg/kg i.p. dose given at 14 days pi, 20/27 mice): 74%
protection against MAIDS development ([1]; single 6mg/kg i.p. dose given at day 2 pi): no protection against MAIDS development
protection against MAIDS development ([1]; single 6mg/kg i.p. dose given at day 7 pi): no protection against MAIDS development
protection from viral rechallenge (MAIDS virus [2]): not protected from viral rechallenge
effect on spleen cell subsets ([3]; Vb at day 14 pi and in uninfected controls): all cell subsets are reduced
cell subsets preferentially targeted in MAIDS infected mice (uninfected to infected ratios) ([3]; Vb at day 14 pi): CD4^+ T cells and CD25^+CD4^+ T cells that are preferentially targeted
protective effect of Vb against MAIDS development after spleen cell transfer (MAIDS virus [4]; Group I: day 14 pi Vb, then ~10^7 whole spleen cells from MAIDS infected donors without Vb): completely prevented Vb from protecting mice from MAIDS development
protective effect of Vb against MAIDS development after spleen cell transfer (MAIDS virus [4]; Group II: donor spleen cells depleted of CD4^+ cells by FACS sorting before transfer): the protective effect of Vb was not overcome
protective effect of Vb against MAIDS development after spleen cell transfer (MAIDS virus [4]; Group III: spleen cells from MAIDS infected donors also given day 14 Vb): fully protected from MAIDS development
disease progression (spleen weight at 10 weeks post MAIDS infection) after adoptive cell transfer (MAIDS virus [5]): disease progression was readily apparent
effect on tumour (murine T cell lymphoma; single dose at day 10 following tumour inoculation): enhancement
effect on tumour (murine T cell lymphoma; single dose at days 4, 6, 13 and 15 following tumour inoculation): regression
